Values of other authors in patent US10413528B2, “Methods to inhibit infection during wound healing with topical compositions including amino acids” (priority 2014, dated 2019).

Settings: not given

maximum solubility in water | SMILES
22.4 mg/mL | CC(C)C[C@H](N)C(=O)O [leucine]

Same assay, conditions: in water

SMILES | maximum aqueous solubility
N[C@@H](Cc1c[nH]cn1)C(=O)O [histidine] | 41.6 mg/mL
CC(C)C[C@H](N)C(=O)O [leucine] | 22.4 mg/mL
CSCC[C@H](N)C(=O)O [methionine] | 53.7 mg/mL
NC(=O)CC[C@H](N)C(=O)O [glutamine] | 35 mg/mL

More lines, now with the values ahead:

maximum aqueous solubility | SMILES
85 mg/mL | CC(C)[C@H](N)C(=O)O [valine]
166.5 mg/mL | C[C@H](N)C(=O)O [alanine]
